# Test results reported in patent EP0238060B1, “Cephalosporin derivatives, processes for their preparation and antibacterial agents” (Banyu Pharmaceutical Co., Ltd., priority 1986, dated 1987).
# Assays:
# Test in all cases: In vitro antibacterial activity, agar plate dilution method (MIC)
# [1] = system: Ps.cepacia 23; format: cell-based, Pseudomonas cepacia; conditions: Burkholderia cepacia; Ps.cepacia 23; Mueller Hinton agar, inoculum 10⁶ CFU/ml, 37°C, 16 hours; read-out: Minimum Inhibitory Concentration (MIC: µg/ml)
# Procedure: (§1) The in vitro antibacterial activities of the compounds of the present invention against various microorganisms, were measured by the following agar plate dilution method. One platinum loopfull of each test microorganism incubated overnight in Mueller Hinton broth, was inoculated to Mueller Hinton agar (inoculum size: l0⁶ CFU/ml). Such culture media containing various antibiotics in various concentrations were prepared. After incubation at 37°C for l6 hours, the minimum inhibitory concentrations (MIC: µg/ml) were measured. As comparative compounds, Cefotaxime, Ceftazidime and the compounds of Reference Examples l to 4 were employed.
# [2] = system: Ps.maltophilia GN 12873; format: cell-based, Pseudomonas maltophilia; conditions: Stenotrophomonas maltophilia, GN12873; Ps.maltophilia GN 12873 (β-Lactamase-producing strain); Mueller Hinton agar, inoculum 10⁶ CFU/ml, 37°C, 16 hours; read-out: Minimum Inhibitory Concentration (MIC: µg/ml)
# Procedure: as §1
# [3] = system: C.freundii GN346/16; format: cell-based; conditions: Citrobacter freundii; C.freundii GN346/16; Mueller Hinton agar, inoculum 10⁶ CFU/ml, 37°C, 16 hours; read-out: Minimum Inhibitory Concentration (MIC: µg/ml)
# Procedure: as §1
# [4] = system: P.vulgaris HX-19; format: cell-based; conditions: Proteus vulgaris, HX19; P.vulgaris HX-19; Mueller Hinton agar, inoculum 10⁶ CFU/ml, 37°C, 16 hours; read-out: Minimum Inhibitory Concentration (MIC: µg/ml)
# Procedure: as §1
# [5] = system: M.morganii GN5407; format: cell-based; conditions: Morganella morganii; M.morganii GN5407 (β-Lactamase-producing strain); Mueller Hinton agar, inoculum 10⁶ CFU/ml, 37°C, 16 hours; read-out: Minimum Inhibitory Concentration (MIC: µg/ml)
# Procedure: as §1
# [6] = system: P.vulgaris No. 33; format: cell-based; conditions: Proteus vulgaris; P.vulgaris No. 33 (β-Lactamase-producing strain); Mueller Hinton agar, inoculum 10⁶ CFU/ml, 37°C, 16 hours; read-out: Minimum Inhibitory Concentration (MIC: µg/ml)
# Procedure: as §1
# [7] = system: E.coli GN5482; format: cell-based; conditions: Escherichia coli; E.coli GN5482 (β-Lactamase-producing strain); Mueller Hinton agar, inoculum 10⁶ CFU/ml, 37°C, 16 hours; read-out: Minimum Inhibitory Concentration (MIC: µg/ml)
# Procedure: as §1
# [8] = system: K.pneumoniae No. 42; format: cell-based; conditions: Klebsiella pneumoniae; K.pneumoniae No. 42 (β-Lactamase-producing strain); Mueller Hinton agar, inoculum 10⁶ CFU/ml, 37°C, 16 hours; read-out: Minimum Inhibitory Concentration (MIC: µg/ml)
# Procedure: as §1
# [9] = system: Ps.aeruginosa AKR17; format: cell-based; conditions: Pseudomonas aeruginosa; Ps.aeruginosa AKR17; Mueller Hinton agar, inoculum 10⁶ CFU/ml, 37°C, 16 hours; read-out: Minimum Inhibitory Concentration (MIC: µg/ml)
# Procedure: as §1
# [10] = system: S.aureus 209P NIHJ-JC1; format: cell-based; conditions: Staphylococcus aureus; S.aureus 209P NIHJ-JC1; Mueller Hinton agar, inoculum 10⁶ CFU/ml, 37°C, 16 hours; read-out: Minimum Inhibitory Concentration (MIC: µg/ml)
# Procedure: as §1
# [11] = system: C.freundii GN346; format: cell-based; conditions: Citrobacter freundii; C.freundii GN346 (β-Lactamase-producing strain); Mueller Hinton agar, inoculum 10⁶ CFU/ml, 37°C, 16 hours; read-out: Minimum Inhibitory Concentration (MIC: µg/ml)
# Procedure: as §1
# [12] = system: E.coli CSH(RE45); format: cell-based; conditions: Escherichia coli, 16 h, read-out: Minimum Inhibitory Concentration (MIC: µg/ml)
# Procedure: as §1
# [13] = system: A.calcoaceticus No. 4; format: cell-based; conditions: Acinetobacter calcoaceticus; A.calcoaceticus No. 4; Mueller Hinton agar, inoculum 10⁶ CFU/ml, 37°C, 16 hours; read-out: Minimum Inhibitory Concentration (MIC: µg/ml)
# Procedure: as §1
# [14] = system: S.marcescens IAM 1184; format: cell-based; conditions: Serratia marcescens, IAM1184; S.marcescens IAM 1184; Mueller Hinton agar, inoculum 10⁶ CFU/ml, 37°C, 16 hours; read-out: Minimum Inhibitory Concentration (MIC: µg/ml)
# Procedure: as §1
# [15] = system: S.aureus JS1; format: cell-based; conditions: Staphylococcus aureus; S.aureus JS1 (β-Lactamase-producing strain); Mueller Hinton agar, inoculum 10⁶ CFU/ml, 37°C, 16 hours; read-out: Minimum Inhibitory Concentration (MIC: µg/ml)
# Procedure: as §1
# [16] = system: K.oxytoca GN10650; format: cell-based; conditions: Klebsiella oxytoca; K.oxytoca GN10650 (β-Lactamase-producing strain); Mueller Hinton agar, inoculum 10⁶ CFU/ml, 37°C, 16 hours; read-out: Minimum Inhibitory Concentration (MIC: µg/ml)
# Procedure: as §1
# [17] = system: K.pneumoniae PCI-602; format: cell-based; conditions: Klebsiella pneumoniae, PCI602; K.pneumoniae PCI-602; Mueller Hinton agar, inoculum 10⁶ CFU/ml, 37°C, 16 hours; read-out: Minimum Inhibitory Concentration (MIC: µg/ml)
# Procedure: as §1
# [18] = system: E.coli NIHJ JC2; format: cell-based; conditions: Escherichia coli, NIHJJC2; E.coli NIHJ JC2; Mueller Hinton agar, inoculum 10⁶ CFU/ml, 37°C, 16 hours; read-out: Minimum Inhibitory Concentration (MIC: µg/ml)
# Procedure: as §1
# [19] = system: E.cloacae 963; format: cell-based; conditions: Enterobacter cloacae; E.cloacae 963; Mueller Hinton agar, inoculum 10⁶ CFU/ml, 37°C, 16 hours; read-out: Minimum Inhibitory Concentration (MIC: µg/ml)
# Procedure: as §1
# [20] = system: M.luteus ATCC9341; format: cell-based; conditions: Micrococcus luteus; M.luteus ATCC9341; Mueller Hinton agar, inoculum 10⁶ CFU/ml, 37°C, 16 hours; read-out: Minimum Inhibitory Concentration (MIC: µg/ml)
# Procedure: as §1
# [21] = system: Ps.aeruginosa IFO3445; format: cell-based; conditions: Pseudomonas aeruginosa; Ps.aeruginosa IFO3445; Mueller Hinton agar, inoculum 10⁶ CFU/ml, 37°C, 16 hours; read-out: Minimum Inhibitory Concentration (MIC: µg/ml)
# Procedure: as §1
# [22] = system: S.epidermidis IAM12012; format: cell-based; conditions: Staphylococcus epidermidis; S.epidermidis IAM12012; Mueller Hinton agar, inoculum 10⁶ CFU/ml, 37°C, 16 hours; read-out: Minimum Inhibitory Concentration (MIC: µg/ml)
# Procedure: as §1
# [23] = system: E.coli CSH2 (RK1); format: cell-based; conditions: Escherichia coli, 16 h, read-out: Minimum Inhibitory Concentration (MIC: µg/ml)
# Procedure: as §1
# [24] = system: S.aureus BB5703; format: cell-based; conditions: Staphylococcus aureus; S.aureus BB5703; Mueller Hinton agar, inoculum 10⁶ CFU/ml, 37°C, 16 hours; read-out: Minimum Inhibitory Concentration (MIC: µg/ml)
# Procedure: as §1
# [25] = system: E.cloacae Nek 39; format: cell-based; conditions: Enterobacter cloacae, NEK39; E.cloacae Nek 39 (β-Lactamase-producing strain); Mueller Hinton agar, inoculum 10⁶ CFU/ml, 37°C, 16 hours; read-out: Minimum Inhibitory Concentration (MIC: µg/ml)
# Procedure: as §1
# [26] = system: Ps.aeruginosa AK 109; format: cell-based; conditions: Pseudomonas aeruginosa, AK109; Ps.aeruginosa AK 109; Mueller Hinton agar, inoculum 10⁶ CFU/ml, 37°C, 16 hours; read-out: Minimum Inhibitory Concentration (MIC: µg/ml)
# Procedure: as §1
# [27] = system: S.marcescens No. 16-2; format: cell-based; conditions: Serratia marcescens, NO.162; S.marcescens No. 16-2 (β-Lactamase-producing strain); Mueller Hinton agar, inoculum 10⁶ CFU/ml, 37°C, 16 hours; read-out: Minimum Inhibitory Concentration (MIC: µg/ml)
# Procedure: as §1
structure (smiles),measurement,setting,value
"CO/N=C(\C(=O)NC1C(=O)N2C(C(=O)[O-])=C(C[n+]3ccc4cc(O)c(O)cc4c3)CSC12)c1csc(N)n1 (stereo not drawn) [Ex. 1, 7-[2-(2-aminothiazol-4-yl)-2-methoxyiminoacetamido]-3-(6,7-dihydroxy-2-isoquinolinio)-methyl-3-cephem-4-carboxylate]",MIC,[1],0.78 µg/mL
same,MIC,[2],> 100 µg/mL
same,MIC,[3],0.78 µg/mL
same,MIC,[4],< 0.006 µg/mL
same,MIC,[5],0.1 µg/mL
same,MIC,[6],0.1 µg/mL
same,MIC,[7],0.39 µg/mL
same,MIC,[8],0.025 µg/mL
same,MIC,[9],100 µg/mL
same,MIC,[10],1.56 µg/mL
same,MIC,[11],25 µg/mL
same,MIC,[12],0.78 µg/mL
same,MIC,[13],0.2 µg/mL
same,MIC,[14],0.0125 µg/mL
same,MIC,[15],25 µg/mL
same,MIC,[16],0.78 µg/mL
same,MIC,[17],< 0.006 µg/mL
same,MIC,[18],0.05 µg/mL
same,MIC,[19],0.025 µg/mL
same,MIC,[20],0.1 µg/mL
same,MIC,[21],0.78 µg/mL
same,MIC,[22],0.78 µg/mL
same,MIC,[23],< 0.006 µg/mL
same,MIC,[24],3.12 µg/mL
same,MIC,[25],0.1 µg/mL
same,MIC,[26],0.78 µg/mL
same,MIC,[27],3.12 µg/mL
